Source: US12492173B2, “Herbicidal substituted N-tetrazolyl aryl carboxamides” (Bayer Aktiengesellschaft, priority 2019, dated 2025)

Legend:
Assay type in all cases: in vivo
Amaranthus retroflexus = assay: Pre-emergence herbicidal action, AMARE; design: key to Herbicidal action against AMARE: % activity: 100 = plants have died, 0 = like control plants; conditions: for herbicidal action AMARE / herbicidal activity AMARE: dosage 320 g/ha; for herbicidal activity AMARE: scored visually after 3 weeks vs untreated controls (100% = plants have died); for Herbicidal action against AMARE: comparative experiment
Procedure, shortened: (§1)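 Seeds were covered with sandy loam soil, then received a pre-emergence surface spray of the WP- or EC-formulated compound. After 3 weeks under good greenhouse growth conditions, damage was scored visually in percent.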

Veronica persica [1] = assay: Pre-emergence herbicidal action, VERPE; design: key to Herbicidal action against VERPE: % activity: 100 = plants have died, 0 = like control plants; conditions: for herbicidal action VERPE / herbicidal activity VERPE: dosage 320 g/ha; for herbicidal activity VERPE: scored visually after 3 weeks vs untreated controls (100% = plants have died); for Herbicidal action against VERPE: comparative experiment
Procedure, shortened: as §1

Viola tricolor = assay: Pre-emergence herbicidal action, VIOTR; design: key to Herbicidal action against VIOTR: % activity: 100 = plants have died, 0 = like control plants; conditions: for herbicidal action VIOTR / herbicidal activity VIOTR: dosage 320 g/ha; for herbicidal activity VIOTR: scored visually after 3 weeks vs untreated controls (100% = plants have died); for Herbicidal action against VIOTR: comparative experiment, 20 g of a.i./ha
Procedure, shortened: as §1

Alopecurus myosuroides = assay: Post-emergence herbicidal action, ALOMY; design: key: % herbicidal action vs untreated; 100 = plants died, 0 = like control
Procedure, shortened: (§2)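 WP or EC formulations, diluted in water at 600 to 800 l/ha with 0.2% wetting agent, are sprayed onto green parts of one-leaf-stage plants grown in sandy loam. Visual assessment of percent damage relative to untreated controls follows after approximately 3 weeks in the greenhouse.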

Matricaria inodora = assay: Post-emergence herbicidal action, MATIN; design: key: % herbicidal action vs untreated; 100 = plants died, 0 = like control
Procedure, shortened: as §2

Veronica persica [2] = assay: Post-emergence herbicidal action, VERPE; design: key: % herbicidal action vs untreated; 100 = plants died, 0 = like control
Procedure, shortened: as §2

[3] = comparative experiment, post-emergence, 5 g of a.i./ha
[4] = comparative experiment, post-emergence, 20 g of a.i./ha

Row | Compound | herbicidal action AMARE (Amaranthus retroflexus) [%] | herbicidal action VERPE (Veronica persica [1]) [%] | herbicidal action VIOTR (Viola tricolor) [%] | herbicidal action MATIN (Matricaria inodora; Dosage 80 g/ha) | herbicidal action VERPE (Veronica persica [2]; Dosage 80 g/ha) | herbicidal activity AMARE (Amaranthus retroflexus) [%] | herbicidal activity VERPE (Veronica persica [1]) [%] | herbicidal activity VIOTR (Viola tricolor) [%] | also measured
1 | Cc1ccc(C(=O)Nc2nnnn2C)c(Cl)c1C[S+](C)[O-] (racemic) [Example 1-288] | 100 | 90 | 90 | 100 | 100 |  |  |  | herbicidal action ALOMY (Alopecurus myosuroides; Dosage 80 g/ha): 80
2 | CC[S+]([O-])Cc1c(C(F)(F)F)ccc(C(=O)Nc2nnnn2C)c1Cl (racemic) [Example 1-300] |  |  |  |  |  | 100 | 100 | 100 | herbicidal action ALOMY (Alopecurus myosuroides; post-emergence, dosage 80 g/ha): 90%; herbicidal action MATIN (Matricaria inodora; post-emergence, dosage 80 g/ha): 100%; herbicidal action VERPE (Veronica persica [2]; post-emergence, dosage 80 g/ha): 100%
3 | Cn1nnnc1NC(=O)c1ccc(C(F)(F)F)c(C[S+]([O-])C2CC2)c1Cl (racemic) [Example 1-303] |  |  |  |  |  | 100 | 100 | 100 | herbicidal action ALOMY (Alopecurus myosuroides; post-emergence, dosage 80 g/ha): 100%; herbicidal action MATIN (Matricaria inodora; post-emergence, dosage 80 g/ha): 100%; herbicidal action VERPE (Veronica persica [2]; post-emergence, dosage 80 g/ha): 100%
4 | COCC[S+]([O-])Cc1c(C(F)(F)F)ccc(C(=O)Nc2nnnn2C)c1Cl (racemic) [Example 1-306] |  |  |  | 90 | 90 | 100 | 90 | 100 | herbicidal action ALOMY (Alopecurus myosuroides; Dosage 80 g/ha): 90
5 | Cn1nnnc1NC(=O)c1ccc(C(F)(F)F)c(C[S+]([O-])CC(F)(F)F)c1Cl (racemic) [Example 1-312] |  |  |  |  |  | 100 | 100 | 100 | herbicidal action ALOMY (Alopecurus myosuroides; post-emergence, dosage 80 g/ha): 90%; herbicidal action MATIN (Matricaria inodora; post-emergence, dosage 80 g/ha): 100%; herbicidal action VERPE (Veronica persica [2]; post-emergence, dosage 80 g/ha): 90%
6 | Cn1nnnc1NC(=O)c1ccc(I)c(C[S+](C)[O-])c1Cl (racemic) [Example 1-363] |  |  |  |  |  | 100 | 100 | 100 | Herbicidal action against AMARE (Amaranthus retroflexus; 20 g of a.i./ha): 100; herbicidal action ALOMY (Alopecurus myosuroides; post-emergence, dosage 80 g/ha): 90%; herbicidal action MATIN (Matricaria inodora; post-emergence, dosage 80 g/ha): 100%; herbicidal action VERPE (Veronica persica [2]; post-emergence, dosage 80 g/ha): 100%
7 | Cc1c(C(=O)Nc2nnnn2C)ccc(C(F)F)c1C[S+](C)[O-] (stereo not shown) [Example 1-108] | 100 | 90 | 100 | 100 | 100 |  |  |  | 
8 | COc1c(C(=O)Nc2nnnn2C)ccc(C(F)(F)F)c1C[S+](C)[O-] (stereo not shown) [Example 1-135] | 100 | 100 | 90 | 100 | 100 |  |  |  | 
9 | CCSCc1c(C(F)(F)F)ccc(C(=O)Nc2nnnn2C)c1SCC [Example 1-182] |  |  |  | 90 | 100 | 100 | 100 | 100 | Herbicidal action against AMARE (Amaranthus retroflexus; 20 g of a.i./ha): 70; Herbicidal action against VERPE (Veronica persica [1]; 20 g of a.i./ha): 90; Herbicidal action against VIOTR (Viola tricolor): 80; Herbicidal action against VERPE (Veronica persica [2]; [3]): 100
10 | CSCc1c(C(F)F)ccc(C(=O)Nc2nnnn2C)c1Cl [Example 1-320] |  |  |  |  | 100 | 90 | 100 | 100 | herbicidal action ALOMY (Alopecurus myosuroides; Dosage 80 g/ha): 100; Herbicidal action against VERPE (Veronica persica [2]; [3]): 100
11 | Cn1nnnc1NC(=O)c1ccc(C(F)(F)F)c(CS(C)(=O)=O)c1C(F)(F)C(F)(F)F [Example 1-552] |  |  |  | 90 | 100 | 100 | 100 | 100 | 
12 | COc1c(C(=O)Nc2nnnn2C)ccc(Cl)c1CSC [Example 1-570] | 100 | 80 | 80 |  |  |  |  |  | Herbicidal action against VIOTR (Viola tricolor): 70; Herbicidal action against MATIN (Matricaria inodora; post-emergence, dosage 80 g/ha): 90; Herbicidal action against VERPE (Veronica persica [2]; post-emergence, dosage 80 g/ha): 90
13 | CCn1nnnc1NC(=O)c1ccc(C(F)F)c(C[S+](C)[O-])c1SC (stereo not shown) [Example 2-171] |  |  |  | 100 | 100 | 100 | 100 | 100 | 
14 | CCn1nnnc1NC(=O)c1ccc(S(C)(=O)=O)c(CS(C)(=O)=O)c1Cl [Example 2-280] | 100 | 100 | 90 |  |  |  |  |  | Herbicidal action against VERPE (Veronica persica [2]; post-emergence, dosage 80 g/ha): 80
15 | CCn1nnnc1NC(=O)c1ccc(C(F)(F)F)c(C[S+]([O-])CC2CC2)c1Cl (stereo not shown) [Example 2-315] |  |  |  | 90 | 100 | 100 | 100 | 100 | 
16 | CCn1nnnc1NC(=O)c1ccc(C(F)F)c(CSC)c1Cl [Example 2-320] |  |  |  |  | 100 | 100 | 100 | 100 | herbicidal action ALOMY (Alopecurus myosuroides; Dosage 80 g/ha): 100
17 | CCCn1nnnc1NC(=O)c1ccc(S(C)(=O)=O)c(CSC)c1C [Example 3-37] | 100 | 100 | 100 | 90 | 100 |  |  |  | 
18 | CCCn1nnnc1NC(=O)c1ccc(S(C)(=O)=O)c(CS(C)(=O)=O)c1C [Example 3-39] | 100 | 100 | 100 | 80 | 100 |  |  |  | 
19 | CCCn1nnnc1NC(=O)c1ccc(C(F)(F)F)c(CSCC)c1C [Example 3-86] | 100 | 100 | 100 | 90 | 80 |  |  |  | 
20 | CCCn1nnnc1NC(=O)c1ccc(C(F)(F)F)c(C[S+](C)[O-])c1OC (stereo not shown) [Example 3-135] | 100 |  | 100 | 100 |  |  |  |  | 
21 | CCCn1nnnc1NC(=O)c1ccc(C(F)(F)F)c(CSC)c1SC [Example 3-161] | 100 | 100 | 100 | 90 | 100 |  |  |  | 
22 | CCCn1nnnc1NC(=O)c1ccc(C(F)F)c(CSC)c1SC [Example 3-170] |  |  |  | 100 | 90 | 100 | 100 | 100 | 
23 | CCCn1nnnc1NC(=O)c1ccc(C(F)F)c(C[S+](C)[O-])c1SC (stereo not shown) [Example 3-171] |  |  |  | 90 | 100 | 100 | 100 | 100 | 
24 | CCCn1nnnc1NC(=O)c1ccc(C(F)F)c(CS(C)(=O)=O)c1SC [Example 3-172] |  |  |  | 90 | 100 | 100 | 100 | 100 | 
25 | CCCn1nnnc1NC(=O)c1ccc(C(F)(F)F)c(CS(C)(=O)=O)c1Cl [Example 3-298] |  |  |  | 100 | 100 | 100 | 100 | 100 | 
26 | CCCn1nnnc1NC(=O)c1ccc(C(F)(F)F)c(CS(=O)(=O)CC)c1Cl [Example 3-301] | 100 | 100 | 100 | 100 | 80 |  |  |  | 
27 | CCCn1nnnc1NC(=O)c1ccc(C(F)F)c(CS(C)(=O)=O)c1Cl [Example 3-322] |  |  |  | 90 | 80 | 100 | 100 | 100 | 
28 | CCCn1nnnc1NC(=O)c1ccc(C(F)F)c(CS(=O)(=O)CC)c1Cl [Example 3-325] |  |  |  |  |  | 100 |  | 100 | 
29 | CCCn1nnnc1NC(=O)c1ccc(C(F)(F)F)c(CS(C)(=O)=O)c1Br [Example 3-382] | 100 | 100 | 90 | 90 | 90 |  |  |  | 
30 | CCS(=O)(=O)c1c(C(F)(F)F)ccc(C(=O)Nc2nnnn2C)c1Br [Example V-13, 2-bromo-3-(ethylsulfonyl)-N-(1-methyl-1-1H-tetrazol-5-yl)-4-(trifluoromethyl)benzamide, reference compound] |  |  |  |  |  |  |  |  | Herbicidal action against AMARE (Amaranthus retroflexus; 80 g of a.i./ha): 0; Herbicidal action against VERPE (Veronica persica [1]; 80 g of a.i./ha): 0; Herbicidal action against ALOMY (Alopecurus myosuroides; [4]): 0; Herbicidal action against MATIN (Matricaria inodora; [4]): 0; Herbicidal action against VERPE (Veronica persica [2]; [4]): 0
